Data from patent US20020103380A1, “Thiourea and urea liquid-phase combinatorial libraries: synthesis and apoptosis induction” (Parker Hughes Institute, priority 1999, published 2002).
≈ marks a conversion by molar mass, not a printed value. One block for each compound: values may come before it.

Key:
[1] = compound stability remark in Table 1; type: physicochemical
[2] = tested on: human tumor cell lines; assay: MTT assays, cell line not given; type: cell-based; details: cell line not stated; for relative cytotoxic / biological activity: MTT; for IC50: Homo sapiens
Description: (§1) The cytotoxicity assay of various CL2 compounds against human tumor cell lines was performed using the MTT (3-[4,5-dimethylthiazol-2-yl]-2,5-diphenyl tetrazolium bromide) assay (Boehringer Mannheim Corp., Indianapolis, Ind.). Briefly, exponentially growing tumor cells were seeded into a 96-well plate at a density of 2.5×10^4 cells/well and incubated for 36 hours at 37° C. prior to compound exposure. On the day of treatment, culture medium was carefully aspirated from the wells and replaced with fresh medium containing the CL2 compounds at concentrations ranging from 0.0 to 100 μM. Triplicate wells were used for each treatment.
(§2) Human cell lines were obtained from American Type Culture Collection (Rockville, Md.) and maintained as a continuous cell line in Dulbecco's modified Eagles' medium supplemented with 10% fetal bovine serum and antibiotics. Cells used in this study include human leukemia cells (NALM-6 and MOLT-3).
(§3) The cells were incubated with the various compounds for 24-36 hours at 37° C. in a humidified 5% CO2 atmosphere. To each well, 10 μl of MTT (0.5 mg/ml final concentration) was added and the plates were incubated at 37° C. for 4 hours to allow MTT to form formazan crystals by reacting with metabolically active cells. The formazan crystals were solubilized overnight at 37° C. in a solution containing 10% SDS in 0.01 M HCl. The absorbance of each well was measured in a microplate reader (Labsystems) at 540 nm and a reference wavelength of 690 nm. To translate the OD540 values into the number of live cells in each well, the OD540 values were compared to those on standard OD540-versus-cell number curves generated for each cell line. The percent survival was calculated using the formula:
(§4) % Survival=live cell number [test]/live cell number [control]×100
(§5) The IC50 values were calculated by non-linear regression analysis.

[3] = tested on: NALM-6 human leukemia cells; assay: MTT cytotoxicity assay, NALM-6; type: cell-based; details: for ED50 Nalm6: Table 4, individual lead compounds; for relative cytotoxic activity: ranking among the 21 individual compounds, Nalm6, MTT
Description: Stage (4): deconvolution and re-synthesis were guided by an iterative screening procedure during which the cytotoxic anti-cancer activities of the individual sub-libraries were measured against the human leukemia cell lines NALM-6 and MOLT-3 using MTT assays. […] However, this is not always true when even-splitting was not possible or some special consideration. […] Another special example is the small 10-member sublibrary CL2.
as §1, §2, §3, §4, §5

stability (remark in place of IC50) [1]: unstable compound
Compound: Fc1ccc(CCNC(=S)NCCc2ccc(F)cc2)cc1 [CL2j]

Compound: Fc1ccc(CCNC(=S)NCCc2ccc(Cl)cc2Cl)cc1 [CL10b]
relative cytotoxic / biological activity [2]: most active

Compound: COc1ccc(OC)c(CCNC(=S)NCCc2ccccc2OC)c1 [CL12a]
relative cytotoxic / biological activity [2]: most active

Compound: COc1ccccc1CCNC(=S)NCCc1ccc(Cl)cc1Cl [CL12b]
relative cytotoxic / biological activity [2]: most active

Compound: CC(NC(=S)NC(C)c1ccccc1)c1ccccc1 (stereo not drawn) [Compound L34A2A2]
ED50 Nalm6 [3]: 50 µg/mL (≈ 176 µM)

Compound: CC(NC(=S)NC(c1ccccc1)c1ccccc1)c1ccccc1 (stereo not drawn) [Compound L34A2A3]
ED50 Nalm6 [3]: 50 µg/mL (≈ 144 µM)

Compound: CC(NC(=S)NC(c1ccccc1)(c1ccccc1)c1ccccc1)c1ccccc1 (stereo not drawn) [Compound L34A2A4]
ED50 Nalm6 [3]: 50 µg/mL (≈ 118 µM)

Compound: S=C(NC(c1ccccc1)c1ccccc1)NC(c1ccccc1)c1ccccc1 [Compound L34A3A3]
ED50 Nalm6 [3]: >100 µg/mL

IC50 [2]: < 10 µg/mL
Compound: S=C(NC(Cc1ccccc1)c1ccccc1)NC(c1ccccc1)c1ccccc1 (stereo not drawn) [Compound L34A3A5, 1-(1,2-Diphenylethyl)-3-(diphenylmethyl)-2-thiourea]
ED50 Nalm6 [3]: <10 µg/mL
relative cytotoxic activity [3]: most active

Compound: S=C(NC(c1ccccc1)(c1ccccc1)c1ccccc1)NC(c1ccccc1)(c1ccccc1)c1ccccc1 [Compound L34A4A4]
ED50 Nalm6 [3]: 30 µg/mL (≈ 53.5 µM)

IC50 [2]: < 10 µg/mL
Compound: S=C(NC(Cc1ccccc1)c1ccccc1)NC(Cc1ccccc1)c1ccccc1 (stereo not drawn) [Compound L34A5A5, 1,3-Bis(1,2-diphenylethyl)-2-thiourea]
ED50 Nalm6 [3]: <10 µg/mL
relative cytotoxic activity [3]: most active
